For assay [1], the target named is T1, α7 nicotinic acetylcholine receptor (Rattus norvegicus, UniProt Q05941).
T1 construct: Currents were recorded from individual neurons using the whole; endogenous in cells; host or cells: primary hippocampal neurons from postnatal day 3 Sprague-Dawley rats, cultured 1-2 weeks
The assay is described as follows: Resensitization of desensitized α7 nicotinic acetylcholine receptor, whole cell patch clamp. It is filed as cell-based.

Assay [2] has as its target T1, α7 nicotinic acetylcholine receptor. The assay is described as follows: Inhibition of desensitization of α7 nicotinic acetylcholine receptor by acetylcholine, whole cell patch clamp. It counts as cell-based. The settings on record: rat hippocampal neurons, continuous exposure to compound, acetylcholine 1 mM applied for 1 second once every minute.

“Also recorded” adds a separate entry of the source. Where two headings read alike, the source gives them in different places.

T1 sequence (Q05941 23-502): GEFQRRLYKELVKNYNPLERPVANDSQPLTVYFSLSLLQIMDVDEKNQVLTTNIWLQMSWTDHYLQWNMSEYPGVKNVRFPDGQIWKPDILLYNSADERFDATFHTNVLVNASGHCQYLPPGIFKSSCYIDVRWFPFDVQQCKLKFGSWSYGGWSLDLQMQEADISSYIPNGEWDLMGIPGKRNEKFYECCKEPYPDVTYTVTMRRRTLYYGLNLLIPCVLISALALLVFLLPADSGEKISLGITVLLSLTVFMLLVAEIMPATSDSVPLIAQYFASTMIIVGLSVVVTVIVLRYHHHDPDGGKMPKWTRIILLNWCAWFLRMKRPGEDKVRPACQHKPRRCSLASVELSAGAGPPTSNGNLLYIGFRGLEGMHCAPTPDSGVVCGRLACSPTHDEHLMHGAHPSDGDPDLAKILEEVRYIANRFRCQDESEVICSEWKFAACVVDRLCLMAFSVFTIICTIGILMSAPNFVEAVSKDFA

As to `COc1cc(OC)c(NC(=O)Nc2cc(C)on2)cc1Cl` [Compound 2, N-(5-chloro-2,4-dimethoxyphenyl)-N′-(5-methylisoxazol-3-yl)urea], in assay [1], the “resensitization of the desensitized α7 nicotinic acetylcholine receptor (inward current evoked in the continued presence of agonist)” value was “resensitizes; also recorded: large persistent inward current that was readily reversed upon washout”. Further, the entries for the “inhibition of desensitization (desensitization kinetics of acetylcholine-induced ion currents)” value in assay [2] and in assay [2] (listed as compound 2) were “inhibition” and “significant inhibition or slowing of receptor desensitization”, respectively.

As to `CN1CCCC1c1cccnc1` (stereo not shown) [nicotine], in assay [1] (nicotine as agonist, expected result ("should result")), the “agonist-evoked inward current and receptor desensitization” value is listed as “initial inward current that rapidly declines back to baseline”.

With `Cl.O=C(N[C@H]1CN2CCC1CC2)c1ccc(Cl)cc1` [Compound 1, N-[(3R)-1-azabicyclo[2.2.2]oct-3-yl]-4-chlorobenzamide hydrochloride], the “agonist-evoked inward current and receptor desensitization” value in assay [1] (rat hippocampal neurons, agonist applied continuously for 3 minutes, hydrochloride) is “desensitization; also recorded: initial inward current that rapidly declined back to baseline”.

Take `Oc1ccc2[nH]ccc2c1` [5-hydroxyindole]: in assay [1] (rat hippocampal neurons, applied after 60 seconds of continuous exposure to agonist Compound 1 (3 μM), in its continued presence), the “resensitization of the desensitized α7 nicotinic acetylcholine receptor (inward current evoked in the continued presence of agonist)” value is “does not resensitize; also recorded: did not resensitize; also recorded: no significant effect”. Also, the “inhibition of desensitization (desensitization kinetics of acetylcholine-induced ion currents)” value in assay [2] was “does not alter the rate of receptor desensitization; also recorded: had no such effect; also recorded: did not affect the desensitization kinetics”.

The values above are taken from patent publication US20060142349A1, “Methods of modulating the activities of alpha-7 nicotinic acetylcholine receptor” (Pfizer Inc, priority 2004, published 2006).
